Test results as given in patent US12404295B2, “(Hetero)aryl-methyl-thio-beta-D-galactopyranoside derivatives” (Idorsia Pharmaceuticals Ltd, priority 2019, dated 2025).
Where two headings read alike, the source gives them in different places.

How the values were obtained:
human Gal-3 (hGal-3) = human Gal-3 (hGal-3) (Homo sapiens (Human), UniProt P17931); test: competitive binding assay: biotinylated hGal-3 binding to microplate-adsorbed asialofetuin (ASF)
Experimental: If not explicitly mentioned otherwise, the inhibition data refer to the binding of biotinylated human Gal-3 (hGal-3).
(§1) Evaluation of Compound Inhibitory Activity (IC50)
The inhibitory activity of compounds is determined in competitive binding assays.
Briefly, compounds are serially diluted in DMSO (working dilutions).
(§2) Plates are incubated for 3 hours at 4° C., then washed with cold assay buffer (3×50 uL), incubated for 1 hour with 25 μL/well of a streptavidin-peroxidase solution (diluted in assay buffer to 80 ng/mL) at 4° C., followed by further washing steps with assay buffer (3×50 uL). Finally, 25 μL/well of ABTS substrate is added.
(§3) The calculated IC50 values may fluctuate depending on the daily assay performance. Fluctuations of this kind are known to those skilled in the art. IC50 values from several measurements are given as mean values.

human Gal-1 (hGal-1) = human Gal-1 (hGal-1) (Homo sapiens (Human), UniProt P09382); test: competitive binding assay: biotinylated hGal-1 binding to microplate-adsorbed asialofetuin (ASF); conditions: Table 15; read-out: IC50 (Galectin-1 inhibition)
Chain of human Gal-1 (hGal-1) (P09382 whole entry): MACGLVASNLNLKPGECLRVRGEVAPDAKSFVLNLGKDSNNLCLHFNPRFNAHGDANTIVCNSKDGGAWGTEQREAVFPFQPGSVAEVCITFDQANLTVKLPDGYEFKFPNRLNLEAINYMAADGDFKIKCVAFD
Experimental: Inhibition data of the epimers R and S of selected Examples are also listed.
as §1
The inhibitory activity of compounds is determined in competitive binding assays. This spectrophotometric assay measures the binding of biotinylated human Gal-3 (hGal-3) or human Gal-1 (hGal-1), respectively, to a microplate-adsorbed glycoprotein, asialofetuin (ASF) (Proc Natl Acad Sci USA. 2013 Mar. 26; 110(13):5052-7.).
Briefly, compounds are serially diluted in DMSO (working dilutions). ASF-coated 384 well plates are supplemented with 22.8 μL/well of biotinylated hGal-3 or hGal-1 in assay buffer (i.e. 300-1000 ng/mL biotinylated hGal-3 or hGal-1) to which 1.2 μL of compound working dilutions are added and mixed.
as §2, §3

[1] = Gal-3 inhibition, binding of biotinylated hGal-3 to ASF, mean values, read-out: IC50

Chain of human Gal-3 (hGal-3) (P17931 whole entry): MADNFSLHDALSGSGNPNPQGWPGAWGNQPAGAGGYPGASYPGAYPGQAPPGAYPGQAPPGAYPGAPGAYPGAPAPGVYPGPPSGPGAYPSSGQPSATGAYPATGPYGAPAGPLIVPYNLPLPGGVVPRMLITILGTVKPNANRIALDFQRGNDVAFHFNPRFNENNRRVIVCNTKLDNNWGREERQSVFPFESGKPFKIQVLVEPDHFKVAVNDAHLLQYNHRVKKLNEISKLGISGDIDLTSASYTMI

SMILES	IC50 (human Gal-3 (hGal-3); [1])	IC50 (human Gal-1 (hGal-1))	IC50 (human Gal-3 (hGal-3); Table 11, read-out: IC50 (Gal-3 inhibition))
Cc1c(F)cccc1[C@H](S[C@@H]1O[C@H](CO)[C@H](O)[C@H](n2cc(-c3cc(F)c(F)c(F)c3)nn2)[C@H]1O)C(C)(C)O (single isomer, unassigned) [Example 2.31.114R.]	0.18 µM	7.24 µM	–
CO[C@@H]1[C@@H](n2cc(-c3cc(F)c(F)c(F)c3)nn2)[C@@H](O)[C@@H](CO)O[C@H]1S[C@@H](c1nccc(Cl)c1Cl)C1(O)CCC(F)(F)CC1 (single isomer, unassigned) [Example 2.44.143R.I.]	–	0.86 µM	0.07 µM
OCC(S[C@@H]1O[C@H](CO)[C@H](O)[C@H](n2cc(-c3cccc(F)c3)nn2)[C@H]1O)c1ccccc1Br (stereo partly drawn) [Example 1.30.101., (2S,3R,4S,5R,6R)-2-((1-(2-Bromophenyl)-2-hydroxyethyl)thio)-4-(4-(3-fluorophenyl)-1H-1,2,3-triazol-1-yl)-6-(hydroxymethyl)tetrahydro-2H-pyran-3,5-diol]	1.7 µM	5.77 µM	–
COCC(S[C@@H]1O[C@H](CO)[C@H](O)[C@H](n2cc(-c3cc(F)c(F)c(F)c3)nn2)[C@H]1O)c1ccccc1 (stereo partly drawn) [Example 2.30.100.OMe, (2R,3R,4S,5R,6S)-2-(Hydroxymethyl)-6-((2-methoxy-1-phenylethyl)thio)-4-(4-(3,4,5-trifluorophenyl)-1H-1,2,3-triazol-1-yl)tetrahydro-2H-pyran-3,5-diol, reference compound]	2.9 µM	56.3 µM	–
CC(C)c1ccccc1C(CO)S[C@@H]1O[C@H](CO)[C@H](O)[C@H](n2cc(-c3cc(F)c(F)c(F)c3)nn2)[C@H]1O (stereo partly drawn) [Example 2.30.105., (2S,3R,4S,5R,6R)-2-((2-Hydroxy-1-(2-isopropylphenyl)ethyl)thio)-6-(hydroxymethyl)-4-(4-(3,4,5-trifluorophenyl)-1H-1,2,3-triazol-1-yl)tetrahydro-2H-pyran-3,5-diol]	0.4 µM	1.73 µM	–
CC(C)(O)C(S[C@@H]1O[C@H](CO)[C@H](O)[C@H](n2cc(-c3cc(F)c(F)c(F)c3)nn2)[C@H]1O)c1ccccc1 (stereo partly drawn) [Example 2.31.100., (2S,3R,4S,5R,6R)-2-((2-Hydroxy-2-methyl-1-phenylpropyl)thio)-6-(hydroxymethyl)-4-(4-(3,4,5-trifluorophenyl)-1H-1,2,3-triazol-1-yl)tetrahydro-2H-pyran-3,5-diol]	1.9 µM	3.71 µM	–
Cc1ccccc1C(S[C@@H]1O[C@H](CO)[C@H](O)[C@H](n2cc(-c3cc(F)c(F)c(F)c3)nn2)[C@H]1O)C(C)(C)O (stereo partly drawn) [Example 2.31.102., (2S,3R,4S,5R,6R)-2-((2-Hydroxy-2-methyl-1-(o-tolyl)propyl)thio)-6-(hydroxymethyl)-4-(4-(3,4,5-trifluorophenyl)-1H-1,2,3-triazol-1-yl)tetrahydro-2H-pyran-3,5-diol]	0.17 µM	2.14 µM	–
Cc1ccccc1[C@@H](S[C@@H]1O[C@H](CO)[C@H](O)[C@H](n2cc(-c3cc(F)c(F)c(F)c3)nn2)[C@H]1O)C(C)(C)O [Example 2.31.102R., (2S,3R,4S,5R,6R)-2-(((R)-2-Hydroxy-2-methyl-1-(o-tolyl)propyl)thio)-6-(hydroxymethyl)-4-(4-(3,4,5-trifluorophenyl)-1H-1,2,3-triazol-1-yl)tetrahydro-2H-pyran-3,5-diol]	0.12 µM	1.42 µM	–
Cc1ccccc1[C@H](S[C@@H]1O[C@H](CO)[C@H](O)[C@H](n2cc(-c3cc(F)c(F)c(F)c3)nn2)[C@H]1O)C(C)(C)O [Example 2.31.102S., (2S,3R,4S,5R,6R)-2-(((S)-2-Hydroxy-2-methyl-1-(o-tolyl)propyl)thio)-6-(hydroxymethyl)-4-(4-(3,4,5-trifluorophenyl)-1H-1,2,3-triazol-1-yl)tetrahydro-2H-pyran-3,5-diol]	4.43 µM	6.98 µM	–
Cc1nc(C(S[C@@H]2O[C@H](CO)[C@H](O)[C@H](n3cc(-c4cc(F)c(F)c(F)c4)nn3)[C@H]2O)C(C)(C)O)c(C)s1 (stereo partly drawn) [Example 2.31.123., (2S,3R,4S,5R,6R)-2-((1-(2,5-Dimethylthiazol-4-yl)-2-hydroxy-2-methylpropyl)thio)-6-(hydroxymethyl)-4-(4-(3,4,5-trifluorophenyl)-1H-1,2,3-triazol-1-yl)tetrahydro-2H-pyran-3,5-diol]	–	1.74 µM	–
Cc1nc([C@@H](S[C@@H]2O[C@H](CO)[C@H](O)[C@H](n3cc(-c4cc(F)c(F)c(F)c4)nn3)[C@H]2O)C(C)(C)O)c(C)s1 [Example 2.31.123R., (2S,3R,4S,5R,6R)-2-(((R)-1-(2,5-Dimethylthiazol-4-yl)-2-hydroxy-2-methylpropyl)thio)-6-(hydroxymethyl)-4-(4-(3,4,5-trifluorophenyl)-1H-1,2,3-triazol-1-yl)tetrahydro-2H-pyran-3,5-diol]	–	1.19 µM	–
Cc1nc([C@H](S[C@@H]2O[C@H](CO)[C@H](O)[C@H](n3cc(-c4cc(F)c(F)c(F)c4)nn3)[C@H]2O)C(C)(C)O)c(C)s1 [Example 2.31.123S., (2S,3R,4S,5R,6R)-2-(((S)-1-(2,5-Dimethylthiazol-4-yl)-2-hydroxy-2-methylpropyl)thio)-6-(hydroxymethyl)-4-(4-(3,4,5-trifluorophenyl)-1H-1,2,3-triazol-1-yl)tetrahydro-2H-pyran-3,5-diol]	–	29.4 µM	–
CO[C@@H]1[C@@H](n2cc(-c3cc(F)c(F)c(F)c3)nn2)[C@@H](O)[C@@H](CO)O[C@H]1S[C@H](c1ccccc1C(F)(F)F)[C@]1(O)CCOC(C)(C)C1 [Example 2.43.112RS.I., (2R,3R,4S,5R,6S)-6-(((R)-((S)-4-Hydroxy-2,2-dimethyltetrahydro-2H-pyran-4-yl)(2-(trifluoromethyl)phenyl)methyl)thio)-2-(hydroxymethyl)-5-methoxy-4-(4-(3,4,5-trifluorophenyl)-1H-1,2,3-triazol-1-yl)tetrahydro-2H-pyran-3-ol]	–	1.3 µM	–
OC[C@H]1O[C@@H](S[C@H](c2ccccc2Cl)C2(O)CCC(F)(F)CC2)[C@H](O)[C@@H](n2cc(-c3cc(F)c(F)c(F)c3)nn2)[C@H]1O [Example 2.44.111R., (2S,3R,4S,5R,6R)-2-(((R)-(2-Chlorophenyl)(4,4-difluoro-1-hydroxycyclohexyl)methyl)thio)-6-(hydroxymethyl)-4-(4-(3,4,5-trifluorophenyl)-1H-1,2,3-triazol-1-yl)tetrahydro-2H-pyran-3,5-diol]	–	1.06 µM	–
OC[C@H]1O[C@@H](S[C@@H](c2ccccc2Cl)C2(O)CCC(F)(F)CC2)[C@H](O)[C@@H](n2cc(-c3cc(F)c(F)c(F)c3)nn2)[C@H]1O [Example 2.44.111S., (2S,3R,4S,5R,6R)-2-(((S)-(2-Chlorophenyl)(4,4-difluoro-1-hydroxycyclohexyl)methyl)thio)-6-(hydroxymethyl)-4-(4-(3,4,5-trifluorophenyl)-1H-1,2,3-triazol-1-yl)tetrahydro-2H-pyran-3,5-diol]	–	47.5 µM	–
CC(C)Cc1c([C@@H](S[C@@H]2O[C@H](CO)[C@H](O)[C@H](n3cc(-c4cc(F)c(F)c(F)c4)nn3)[C@H]2O)C2(O)CCC(F)(F)CC2)noc1C1CC1 [Example 2.44.131 R., (2S,3R,4S,5R,6R)-2-(((R)-(5-Cyclopropyl-4-isobutylisoxazol-3-yl)(4,4-difluoro-1-hydroxycyclohexyl)methyl)thio)-6-(hydroxymethyl)-4-(4-(3,4,5-trifluorophenyl)-1H-1,2,3-triazol-1-yl)tetrahydro-2H-pyran-3,5-diol]	–	0.09 µM	–
CC(C)Cc1c(C(S[C@@H]2O[C@H](CO)[C@H](O)[C@H](n3cc(-c4cc(F)c(F)c(F)c4)nn3)[C@H]2O)C2(O)CCC(F)(F)CC2)noc1C1CC1 (stereo partly drawn) [Example 2.44.131., (2S,3R,4S,5R,6R)-2-(((5-Cyclopropyl-4-isobutylisoxazol-3-yl)(4,4-difluoro-1-hydroxycyclohexyl)methyl)thio)-6-(hydroxymethyl)-4-(4-(3,4,5-trifluorophenyl)-1H-1,2,3-triazol-1-yl)tetrahydro-2H-pyran-3,5-diol]	–	0.22 µM	–
CO[C@@H]1[C@@H](n2cc(-c3cc(F)c(F)c(F)c3)nn2)[C@@H](O)[C@@H](CO)O[C@H]1SC(c1ncccc1C)C1(O)CCC2(CCOCC2)CC1 (stereo partly drawn) [Example 2.72.126.I., 9-((((2S,3R,4S,5R,6R)-5-Hydroxy-6-(hydroxymethyl)-3-methoxy-4-(4-(3,4,5-trifluorophenyl)-1H-1,2,3-triazol-1-yl)tetrahydro-2H-pyran-2-yl)thio)(3-methylpyridin-2-yl)methyl)-3-oxaspiro[5.5]undecan-9-ol]	–	0.73 µM	–
CO[C@@H]1[C@@H](n2cc(-c3cnc(F)c(C)c3)nn2)[C@@H](O)[C@@H](CO)O[C@H]1SC(c1ncccc1C)C1(O)CCC(F)(F)CC1 (stereo partly drawn) [Example 24.44.126.I, (2R,3R,4S,5R,6S)-6-(((4,4-Difluoro-1-hydroxycyclohexyl)(3-methylpyridin-2-yl)methyl)thio)-4-(4-(6-fluoro-5-methylpyridin-3-yl)-1H-1,2,3-triazol-1-yl)-2-(hydroxymethyl)-5-methoxytetrahydro-2H-pyran-3-ol]	–	0.16 µM	–
